# Earlier results in patent US11975015B2, “Methods for treating degenerative disc disease and chronic lower back pain” (ECM Biologics, Inc., priority 2017, dated 2024).
# Test system: chronic low back pain (CLBP)
# Settings: amoxicillin 500 mg-clavulanic acid 125 mg three times a day for 100 days; Albert 2013, Palazzo 2017
substance,measurement,value
amoxicillin-clavulanic acid,treatment outcome in CLBP patients,mixed results
